Measured values as given in PubChem BioAssay AID2060342 (Molecular Pharmacology Branch, DTP, NCI, 2025).

Test system: 171881-019-R-J1-PDC multicell spheroid viability
Assay: Anticancer human tumor 171881-019-R-J1-PDC patient-derived invasive breast carcinoma cell line growth inhibition [IpAb]
Conditions: for IC50: curve of first compound; for viability, T/C: stronger effect = lower value
Method in brief: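 Spheroids of 60% malignant cells, 25% HUVEC and 15% MSC were exposed to targeted agents combined with ipatasertib or abemaciclib. Doses started at or near clinical Cmax (10 microM when unknown) and fell in half-log steps.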

[1] = second compound 0.01 µM, first compound 0.0316 µM
[2] = second compound 0.01 µM, first compound 0.1 µM
[3] = second compound 0.01 µM, first compound 0.316 µM
[4] = second compound 0.01 µM, first compound 1 µM
[5] = second compound 0.01 µM, first compound 3.16 µM
[6] = second compound 0.01 µM, first compound 10 µM
[7] = second compound 0.0316 µM, first compound 0.0316 µM
[8] = second compound 0.0316 µM, first compound 0.1 µM
[9] = second compound 0.0316 µM, first compound 0.316 µM
[10] = second compound 0.0316 µM, first compound 1 µM
[11] = second compound 0.0316 µM, first compound 3.16 µM
[12] = second compound 0.0316 µM, first compound 10 µM
[13] = second compound 0.1 µM, first compound 0.0316 µM
[14] = second compound 0.1 µM, first compound 0.1 µM
[15] = second compound 0.1 µM, first compound 0.316 µM
[16] = second compound 0.1 µM, first compound 1 µM
[17] = second compound 0.1 µM, first compound 3.16 µM
[18] = second compound 0.1 µM, first compound 10 µM
[19] = second compound 0.316 µM, first compound 0.0316 µM
[20] = second compound 0.316 µM, first compound 0.1 µM
[21] = second compound 0.316 µM, first compound 0.316 µM
[22] = second compound 0.316 µM, first compound 1 µM
[23] = second compound 0.316 µM, first compound 3.16 µM
[24] = second compound 0.316 µM, first compound 10 µM
[25] = second compound 1 µM, first compound 0.0316 µM
[26] = second compound 1 µM, first compound 0.1 µM
[27] = second compound 1 µM, first compound 0.316 µM
[28] = second compound 1 µM, first compound 1 µM
[29] = second compound 1 µM, first compound 3.16 µM
[30] = second compound 1 µM, first compound 10 µM
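Further: spheroids exposed to the agents for seven days before readout.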

CC1(C)CCC(CN2CCN(c3ccc(C(=O)NS(=O)(=O)c4ccc(NCC5CCOCC5)c([N+](=O)[O-])c4)c(Oc4cnc5[nH]ccc5c4)c3)CC2)=C(c2ccc(Cl)cc2)C1 + CCN1CCN(Cc2ccc(Nc3ncc(F)c(-c4cc(F)c5nc(C)n(C(C)C)c5c4)n3)nc2)CC1
IC50 (second compound 0.01 µM): 5.42 µM | IC50 (second compound 0.0316 µM): 6.19 µM | IC50 (second compound 0.1 µM): 5.54 µM | IC50 (second compound 0.316 µM): 5.97 µM | IC50 (second compound 1 µM): 6.55 µM | viability, T/C [1]: 84.5% | viability, T/C [2]: 79% | viability, T/C [3]: 76.6% | viability, T/C [4]: 72.4% | viability, T/C [5]: 83.4% | viability, T/C [6]: 16.6% | viability, T/C [7]: 89.7% | viability, T/C [8]: 86.7% | viability, T/C [9]: 86.8% | viability, T/C [10]: 70.4% | viability, T/C [11]: 89.3% | viability, T/C [12]: 25.3% | viability, T/C [13]: 109% | viability, T/C [14]: 105% | viability, T/C [15]: 98.9% | viability, T/C [16]: 89% | viability, T/C [17]: 79% | viability, T/C [18]: 22.9% | viability, T/C [19]: 120% | viability, T/C [20]: 117% | viability, T/C [21]: 109% | viability, T/C [22]: 99.7% | viability, T/C [23]: 89.2% | viability, T/C [24]: 21.1% | viability, T/C [25]: 138% | viability, T/C [26]: 139% | viability, T/C [27]: 136% | viability, T/C [28]: 128% | viability, T/C [29]: 104% | viability, T/C [30]: 18.4%

CCCS(=O)(=O)Nc1ccc(F)c(C(=O)c2c[nH]c3ncc(-c4ccc(Cl)cc4)cc23)c1F + CCN1CCN(Cc2ccc(Nc3ncc(F)c(-c4cc(F)c5nc(C)n(C(C)C)c5c4)n3)nc2)CC1
IC50 (second compound 0.01 µM): > 10 µM | IC50 (second compound 0.0316 µM): > 10 µM | IC50 (second compound 0.1 µM): > 10 µM | IC50 (second compound 0.316 µM): > 10 µM | IC50 (second compound 1 µM): > 10 µM | viability, T/C [1]: 103% | viability, T/C [2]: 80.8% | viability, T/C [3]: 98.6% | viability, T/C [4]: 87% | viability, T/C [5]: 82.9% | viability, T/C [6]: 83.9% | viability, T/C [7]: 96.1% | viability, T/C [8]: 88.5% | viability, T/C [9]: 90.9% | viability, T/C [10]: 91.6% | viability, T/C [11]: 85.4% | viability, T/C [12]: 92.3% | viability, T/C [13]: 113% | viability, T/C [14]: 94.9% | viability, T/C [15]: 107% | viability, T/C [16]: 98.4% | viability, T/C [17]: 95.5% | viability, T/C [18]: 94.1% | viability, T/C [19]: 123% | viability, T/C [20]: 129% | viability, T/C [21]: 112% | viability, T/C [22]: 113% | viability, T/C [23]: 106% | viability, T/C [24]: 99.2% | viability, T/C [25]: 143% | viability, T/C [26]: 143% | viability, T/C [27]: 141% | viability, T/C [28]: 137% | viability, T/C [29]: 130% | viability, T/C [30]: 119%

Cn1cnc2c(F)c(Nc3ccc(Br)cc3Cl)c(C(=O)NOCCO)cc21 + CCN1CCN(Cc2ccc(Nc3ncc(F)c(-c4cc(F)c5nc(C)n(C(C)C)c5c4)n3)nc2)CC1
IC50 (second compound 0.01 µM): 1.25 µM | IC50 (second compound 0.0316 µM): 1.13 µM | IC50 (second compound 0.1 µM): 1.15 µM | IC50 (second compound 0.316 µM): 1.4 µM | IC50 (second compound 1 µM): 1.32 µM | viability, T/C (second compound 0.01 µM, first compound 0.00949 µM): 97.1% | viability, T/C (second compound 0.01 µM, first compound 0.03 µM): 114% | viability, T/C (second compound 0.01 µM, first compound 0.0949 µM): 112% | viability, T/C (second compound 0.01 µM, first compound 0.3 µM): 114% | viability, T/C (second compound 0.01 µM, first compound 0.949 µM): 61.3% | viability, T/C (second compound 0.01 µM, first compound 3 µM): 13.9% | viability, T/C (second compound 0.0316 µM, first compound 0.00949 µM): 121% | viability, T/C (second compound 0.0316 µM, first compound 0.03 µM): 120% | viability, T/C (second compound 0.0316 µM, first compound 0.0949 µM): 130% | viability, T/C (second compound 0.0316 µM, first compound 0.3 µM): 109% | viability, T/C (second compound 0.0316 µM, first compound 0.949 µM): 56.8% | viability, T/C (second compound 0.0316 µM, first compound 3 µM): 14.6% | viability, T/C (second compound 0.1 µM, first compound 0.00949 µM): 112% | viability, T/C (second compound 0.1 µM, first compound 0.03 µM): 138% | viability, T/C (second compound 0.1 µM, first compound 0.0949 µM): 126% | viability, T/C (second compound 0.1 µM, first compound 0.3 µM): 99.7% | viability, T/C (second compound 0.1 µM, first compound 0.949 µM): 58.3% | viability, T/C (second compound 0.1 µM, first compound 3 µM): 15.9% | viability, T/C (second compound 0.316 µM, first compound 0.00949 µM): 142% | viability, T/C (second compound 0.316 µM, first compound 0.03 µM): 142% | viability, T/C (second compound 0.316 µM, first compound 0.0949 µM): 136% | viability, T/C (second compound 0.316 µM, first compound 0.3 µM): 116% | viability, T/C (second compound 0.316 µM, first compound 0.949 µM): 63.4% | viability, T/C (second compound 0.316 µM, first compound 3 µM): 23.4% | viability, T/C (second compound 1 µM, first compound 0.00949 µM): 149% | viability, T/C (second compound 1 µM, first compound 0.03 µM): 142% | viability, T/C (second compound 1 µM, first compound 0.0949 µM): 138% | viability, T/C (second compound 1 µM, first compound 0.3 µM): 106% | viability, T/C (second compound 1 µM, first compound 0.949 µM): 59.5% | viability, T/C (second compound 1 µM, first compound 3 µM): 25.8%
